The text below walks through data of US20100143972A1, “Method of Making Cyclic Polypeptides with Inteins” (priority 2006, published 2010).

For one experiment, the system named is AH430 (Agr-II reporter). Type of experiment: cell-based, S. aureus. On the procedure:
(§1) AIP inhibition assays. For monitoring inhibition of the Agr system, an overnight culture of the appropriate reporter strain was inoculated into TSB with chloramphenicol and grown to an optical density of 0.05 (0.25 for AH431) at 600 nm. In triplicate, 475 μl of reporter culture was aliquoted into test tubes (13×100 mm) and 25 μl of spent media or intein-generated AIP was added to each tube. As controls, separate tubes were prepared with the addition of either 25 μl of TSB or chitin elution buffer. The tubes were shaken at 250 rpm at 37° C. and assayed at the following times unless otherwise indicated: AH429, 12 hrs; AH430, 3 hrs; AH431, 4 hrs. Both cell density (optical density, 595 nm) and GFP fluorescence (excitation at 485 nm, emission at 535 nm) was measured in a Tecan GENios microtiter plate reader (Research Triangle Park, N.C.) by removing 100 μl from each tube and assaying in a microtiter plate (Corning 3606 plates). Fluorescence is reported as an average of the three samples. Control AIP samples were prepared from the appropriate S. aureus producing strains. Each strain was grown in TSB until an optical density at 600 nm of ˜2.0-2.5, the cells were pelleted, and the supernatant was filtered through a 0.2 micro syringe filter. The filtered supernatants were stored at 4° C. and used within 48 hrs.
The intein fusions were kept on resin in the presence of buffer with TCEP, a non-thiol reducing agent, added to maintain DnaB activity and keep the AIP cysteine reduced. Following incubation, the resin buffer was eluted and tested for biological activity. The bioassay is based on the observation that there are three inhibition classes among S. aureus Agr systems (FIG. 1). An S. aureus Agr-II reporter strain, AH430, has a plasmid with the RNAIII transcript promoter driving GFP expression.
Agr reporter strains. To test the iAIPs, reporter strains had to be developed for each of the Agr-I, Agr-II, and Agr-III systems. […]

For experiment [1], the system named is Strain AH429 (Agr-I reporter). In words: AIP inhibition assay, Agr-I reporter (RNAIII promoter driving GFP). In kind it is cell-based, S. aureus. The following applies: sample diluted 20-fold into AH429 culture; GFP compared to TSB control. On the procedure: as §1
(§2) Agr reporter strains. […]

Experiment [2] concerns Strain AH431 (Agr-III reporter). The experiment can be described thus: AIP inhibition assay, Agr-III reporter (RNAIII promoter driving GFP). In kind it is cell-based, S. aureus. The settings on record: sample diluted 20-fold into AH431 culture. As to the method:
as §1, §2

For experiment [3], the system named is S. aureus Agr-I (AH462) reporter strain. In words: AIP activation assay, Agr-I reporter. In kind it is cell-based. The following applies: 50 nM iAIP, TSB with 0.2% glucose, AH462, GFP. As to the method:
(§3) AIP activation assays. Overnight cultures of S. aureus reporter strains were grown in TSB and sub-cultured 1:50 into TSB+0.2% glucose supplemented with indicated AIP (final volume […] concentration 50 nM). Cultures were grown in test tubes (13×100 mm) at 37° C. shaking at 250 rpm. Cell density and fluorescence was monitored using a Tecan GENios microtiter plate reader at 4, 6, 8, and 10 hours after inoculation.
(§4) In published reports, the addition of AIP samples results in a significant increase in the RNAIII levels (Ji et al., 1997). The inventors reasoned that the S. aureus media conditions are limiting the Agr response, allowing detection of AIP activation. Glucose is a common media component, and growth on glucose is known to repress RNAIII transcription (Regassa et al., 1992). When the reporter strains were grown in TSB with 0.2% glucose, the inventors observed an approximately 70% drop in GFP expression (data not shown). The addition of AIP to the glucose treated strains restores the maximal levels of RNAIII, creating a simple test for AIP activation.

Experiment [4] has as its system S. aureus Agr-II (AH430) reporter strain. The experiment can be described thus: AIP activation assay, Agr-II reporter. Type of experiment: cell-based. The settings on record: 50 nM iAIP, TSB with 0.2% glucose, AH430, GFP. As to the method:
as §3, §4

“Also recorded” adds a separate entry of the source. No end group written: not given here.

Take “iAIP-I: intein-generated S. aureus AIP-I thiolactone peptide with an additional N-terminal methionine (MYSTCDFIM) (not fully specified (bridges); also: thiolactone, places not given here)”: in the experiment with AH430 (Agr-II reporter) (sample diluted 20-fold into AH430 culture, untreated sample), the “inhibition of quorum-sensing (GFP fluorescence) in Agr-II reporter strain” value is on record as “inhibited the quorum-sensing response in strain AH430 in a dose-dependent manner; also recorded: did inhibit activity”. In the experiment on AH430 (Agr-II reporter) (sample treated with hydroxylamine, opening the thiolactone ring, AH430), the “Agr-II inhibition after hydroxylamine treatment of the sample” value was “neither sample inhibited the Agr response”. Moreover, the “Agr-II inhibition after base treatment of the sample” value in the experiment on AH430 (Agr-II reporter) (sample treated with sodium hydroxide base to open the thiolactone ring, neutralized with acid, AH430) is “neither sample inhibited the Agr response”. Moreover, the “inhibition of quorum-sensing (GFP fluorescence) in Agr-I reporter strain” value in experiment [1] is “did not inhibit quorum-sensing”. The “inhibition of quorum-sensing (GFP fluorescence) in Agr-III reporter strain” value in experiment [2] was “inhibited”. For the same substance, in experiment [3], the “-fold activation over the TSB control, Agr-I reporter” value is 3.0 -fold.

In the case of “iAIP-II: intein-generated S. aureus AIP-II thiolactone peptide (GVNACSSLF), N-terminal methionine completely removed (not fully specified (bridges); also: thiolactone, places not given here)”, the “inhibition of quorum-sensing (GFP fluorescence) in Agr-I reporter strain” value in experiment [1] is listed as “inhibited quorum-sensing”. Moreover, in experiment [4], the “-fold activation over the TSB control, Agr-II reporter” value is recorded as 3.8 -fold. In addition, the “inhibition of quorum-sensing (GFP fluorescence) in Agr-III reporter strain” value in experiment [2] is given as “inhibited quorum-sensing”.
